Results from the NIST ThermoML archive (doi:10.1021/je101012n).

Experiment: mn = molality of the nth substance listed, in mol/kg
Conditions: 101 kPa, Liquid, Alternating current cell with electrodes

O=C([O-])O.[Na+] [sodium bicarbonate] + O
electrical conductivity [S/m]
Conditions | 278.15 K | 283.15 K | 298.15 K | 308.15 K | 318.15 K | 343.15 K | 363.15 K
m1 = 0.00121 | 0.006911 | 0.008034 | 0.01162 | 0.01437 | 0.01703 | 0.02506 | 0.03284
m1 = 0.01187 | 0.06467 | 0.07485 | 0.1086 | 0.1346 | 0.1589 | 0.234 | 0.3056
m1 = 0.1223 | 0.5728 | 0.6641 | 0.9598 | 1.177 | 1.395 | 2.044 | 2.457
m1 = 0.7226 | 2.634 | 3.055 | 4.383 | 5.346 | 6.41 | 9.404 | 11.39

[Br-].[K+] [potassium bromide] + O
electrical conductivity [S/m]
Conditions | 278.15 K | 283.15 K | 298.15 K | 308.15 K | 318.15 K | 343.15 K | 363.15 K
m1 = 9.9e-05 | 0.0009344 | 0.001066 | 0.001469 | 0.00175 | 0.002072 | 0.002896 | 0.003522
m1 = 0.000975 | 0.009114 | 0.01037 | 0.01441 | 0.01716 | 0.02007 | 0.02802 | 0.0343
m1 = 0.00987 | 0.08994 | 0.1022 | 0.1417 | 0.1689 | 0.1974 | 0.2761 | 0.3376
m1 = 0.09755 | 0.8252 | 0.9355 | 1.29 | 1.535 | 1.787 | 2.491 | 2.952
m1 = 1.21 | 8.409 | 9.363 | 12.45 | 14.54 | 16.72 | 22.46 | 26.28
